Measurements as given in the supplement of paper PMC10307832.

Legend:
Assay in all cases: relative viability (nuclei count vs DMSO), 5 days (fraction); higher = more cells survive
FH535 + Luminespib = compound: CC1=C(C=CC(=C1)[N+](=O)[O-])NS(=O)(=O)C2=C(C=CC(=C2)Cl)Cl [FH535] + CCNC(=O)c1noc(-c2cc(C(C)C)c(O)cc2O)c1-c1ccc(CN2CCOCC2)cc1 [Luminespib] (partner 0.01 µM)
Summary of the method: (§1)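 Lung cancer cell lines in 1536-well plates got either a single drug or a fixed anchor-drug dose together with five library-drug doses (not always all listed) in √10 steps, by pin tool, on the day after seeding. Nuclei were counted after 5 days, and relative viability is the treated-to-vehicle ratio of nuclei counts. Values are medians of duplicate plates.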

FH535 + Foretinib = compound: CC1=C(C=CC(=C1)[N+](=O)[O-])NS(=O)(=O)C2=C(C=CC(=C2)Cl)Cl [FH535] + COc1cc2c(Oc3ccc(NC(=O)C4(C(=O)Nc5ccc(F)cc5)CC4)cc3F)ccnc2cc1OCCCN1CCOCC1 [Foretinib] (partner 0.25 µM)
Summary of the method: as §1

FH535 + OSI-027 = compound: CC1=C(C=CC(=C1)[N+](=O)[O-])NS(=O)(=O)C2=C(C=CC(=C2)Cl)Cl [FH535] + COc1cccc2cc(-c3nc([C@H]4CC[C@H](C(=O)O)CC4)n4ncnc(N)c34)[nH]c12 [OSI-027] (partner 0.5 µM)
Summary of the method: as §1

FH535 + Alpelisib = compound: CC1=C(C=CC(=C1)[N+](=O)[O-])NS(=O)(=O)C2=C(C=CC(=C2)Cl)Cl [FH535] + Cc1nc(NC(=O)N2CCC[C@H]2C(N)=O)sc1-c1ccnc(C(C)(C)C(F)(F)F)c1 [Alpelisib] (partner 2 µM)
Summary of the method: as §1

FH535 + Decitabine = compound: CC1=C(C=CC(=C1)[N+](=O)[O-])NS(=O)(=O)C2=C(C=CC(=C2)Cl)Cl [FH535] + Nc1ncn([C@H]2C[C@H](O)[C@@H](CO)O2)c(=O)n1 [Decitabine] (partner 2 µM)
Summary of the method: as §1

Cell Line | relative viability (FH535 + Luminespib; first compound 0.04 µM) | relative viability (FH535 + Luminespib; first compound 0.1265 µM) | relative viability (FH535 + Luminespib; first compound 0.4 µM) | relative viability (FH535 + Luminespib; first compound 1.265 µM) | relative viability (FH535 + Foretinib; first compound 0.04 µM) | relative viability (FH535 + Foretinib; first compound 0.1265 µM) | relative viability (FH535 + Foretinib; first compound 0.4 µM) | relative viability (FH535 + Foretinib; first compound 1.265 µM) | relative viability (FH535 + OSI-027; first compound 0.04 µM) | relative viability (FH535 + OSI-027; first compound 0.1265 µM) | relative viability (FH535 + OSI-027; first compound 0.4 µM) | relative viability (FH535 + OSI-027; first compound 1.265 µM) | relative viability (FH535 + Alpelisib; first compound 0.04 µM) | relative viability (FH535 + Alpelisib; first compound 0.1265 µM) | relative viability (FH535 + Alpelisib; first compound 0.4 µM) | relative viability (FH535 + Alpelisib; first compound 1.265 µM) | relative viability (FH535 + Decitabine; first compound 0.04 µM) | relative viability (FH535 + Decitabine; first compound 0.1265 µM) | relative viability (FH535 + Decitabine; first compound 0.4 µM) | relative viability (FH535 + Decitabine; first compound 1.265 µM)
HCC-15 | 0.287 | 0.302 | 0.255 | 0.302 | 0.988 | 1.06 | 0.965 | 0.639 | 0.554 | 0.631 | 0.574 | 0.463 | 0.864 | 0.819 | 0.85 | 0.646 | 0.58 | 0.58 | 0.604 | 0.451
NCI-H2126 | 0.841 | 0.919 | 0.868 | 0.514 | 0.955 | 1.31 | 1.06 | 0.601 | 0.72 | 0.742 | 0.692 | 0.532 | 0.744 | 0.744 | 0.718 | 0.626 | 0.59 | 0.582 | 0.574 | 0.415
NCI-H2085 | 0.333 | 0.481 | 0.41 | 0.268 | 1.01 | 0.869 | 0.89 | 0.59 | 0.644 | 0.709 | 0.602 | 0.508 | 0.959 | 0.977 | 0.941 | 0.675 | 0.542 | 0.512 | 0.572 | 0.431
BEN | 0.211 | 0.466 | 0.285 | 0.119 | 0.595 | 0.932 | 0.723 | 0.328 | 0.287 | 0.281 | 0.313 | 0.27 | 0.929 | 0.998 | 0.868 | 0.748 | 0.676 | 0.703 | 0.573 | 0.498
NCI-H661 | 0.893 | 0.928 | 0.841 | 0.56 | 1.01 | 0.947 | 0.92 | 0.671 | 0.688 | 0.704 | 0.67 | 0.46 | 0.607 | 0.55 | 0.518 | 0.374 | 0.546 | 0.609 | 0.566 | 0.46
LCLC-103H | 0.936 | 1.02 | 0.862 | 0.616 | 0.789 | 0.755 | 0.776 | 0.551 | 0.448 | 0.383 | 0.341 | 0.42 | 0.906 | 0.935 | 1.01 | 0.927 | 0.672 | 0.787 | 0.718 | 0.503
PC-3 [JPC-3] | 0.794 | 0.76 | 0.546 | 0.399 | 1 | 1 | 0.879 | 0.582 | 0.828 | 0.704 | 0.624 | 0.592 | 1 | 1.07 | 0.951 | 0.686 | 0.865 | 0.805 | 0.756 | 0.74
COR-L23 | 0.73 | 0.612 | 0.5 | 0.435 | 0.936 | 0.818 | 0.781 | 0.517 | 0.778 | 0.621 | 0.643 | 0.408 | 0.799 | 0.718 | 0.681 | 0.499 | 0.302 | 0.424 | 0.444 | 0.314
NCI-H1915 | 0.81 | 0.797 | 0.775 | 0.644 | 1.11 | 1.08 | 1.01 | 0.738 | 0.542 | 0.683 | 0.552 | 0.525 | 1 | 1.07 | 1.05 | 0.738 | 0.243 | 0.252 | 0.263 | 0.265
